The values that follow come from patent publication US20220372585A1, “Sensors for Aromatic Compounds and Methods of Making and Using Same” (Washington University, priority 2021, published 2022).

Values joined by “and” are separate entries in the source; they are usually repeats but may differ in a detail not shown here. Identical values can stand only once. “Also recorded” adds a separate entry of the source.

For assay [1], the system named is TynA-FeaR sensors (best performing variants). Briefly: TynA-FeaR sensor activity and specificity in richer media, amines and carboxylic acids. Format: cell-based, E. coli. The note with it: 1 mM, 24 h; minimal medium with casamino acids and LB medium; FIG. 29. The source says: FIG. 29A-FIG. 29B. TynA-FeaR sensor activity and specificity in richer media, related to FIG. 6A-FIG. 6E. […] PtynA was regulated by the specified variants of TynA and FeaR. The response of the G494S TynA mutant sensors was not determined (ND) for DOPAC, PAA, HPAA, or IAA. Values and error bars are the average and standard deviation of biological triplicate, respectively.
To further confirm the specificity of the best performing sensors, the response of each to the four amines and the four respective carboxylic acids, 3,4-dihydroxyphenylacetic acid (DOPAC), phenylacetic acid (PAA), 4-hydroxyphenylacetic acid (HPAA), and indole-3-acetic acid (IAA) was tested in minimal medium with casamino acids and LB medium (see e.g., FIG. 29A-FIG. 29B). […] All mutant sensors remained specific to PEA or Tyra in minimal medium with casamino acids.
(§1) Flow cytometry was performed as previously described. […] Cytometry data was gated by forward and side scatter.

For assay [2], the system named is wild-type TynA and A81L FeaR. Briefly: microbe, parasite or virus in culture. Format: cell-based, E. coli MG1655. To be noted: A81L FeaR; 24 h; FIG. 5C. How it is done:
as §1

Another assay deals with T1, wild-type TyrR (Escherichia coli, UniProt P07604).
T1 construct: tyrR (WT); expressed in transfected cells; host or cells: E. coli Nissle 1917 (EcN)
Briefly: cell-based. Format: cell-based, E. coli. How it is done:
(§2) Everything but (Eb) medium was prepared by supplementing M9 minimal medium with 1 mM MgSO4, […]), 0.4% w/v glucose, and all non-aromatic amino acids (0.8 mM alanine, 5 mM arginine, 0.4 mM asparagine, 0.4 mM aspartate, 0.1 mM cysteine, 0.6 mM glutamate, 0.6 mM glutamine, 0.8 mM glycine, 0.2 mM histidine, 0.4 mM isoleucine, 0.8 mM leucine, 0.4 mM lysine, 0.2 mM methionine, 0.4 mM proline, 10 mM serine, 0.4 mM threonine, and 0.6 mM valine). […] Experimental cultures were prepared by diluting overnight cultures 200× into 0.6 mL fresh Eb medium supplemented with the respective ligands (Phe and Tyr) in 2 mL 96-deep well plates (Eppendorf, Hamburg, Germany). Cultures were grown for 8 h at 37° C. and 250 rpm before sampled for fluorimetry or flow cytometry analysis. All medium was supplemented with the relevant antibiotics for plasmid maintenance ([…]).
(§3) […] culture samples were collected and transferred to 96-well assay microplates (clear, flat bottom black, Greiner Bio-One). The fluorescence and culture absorbance (Abs) were measured using a Tecan microplate reader (Infinite M200 Pro) as previously described. The fluorescence of GFP was measured with an excitation at 483 nm and emission at 530 nm. The Abs of the samples was measured at 600 nm. The measured fluorescence was normalized by dividing by the Abs and subtracting the same ratio obtained from non-fluorescent wild-type cells (Equation 1).
as §1

For a further assay, the target named is T2, R10F TyrR (Escherichia coli, UniProt P07604, R10F).
T2 construct: expressed in transfected cells; host or cells: E. coli Nissle 1917 (EcN), plasmid pAGR473
The assay is described as follows: cell-based. Format: cell-based, E. coli. How it is done: as §2, §3, §1

The target of a further assay is T3, E274Q+D103S TyrR (Escherichia coli, UniProt P07604, D103S/E274Q).
T3 construct: expressed in transfected cells; host or cells: E. coli Nissle 1917 (EcN), plasmid pAGR159
Briefly: cell-based. The note with it: ligand alone, listed as Tyr. Format: cell-based, E. coli. How it is done:
as §2, §3, §1

The next assay deals with T4, E274Q+T14V TyrR (Escherichia coli, UniProt P07604, E274Q/T14V).
T4 construct: expressed in transfected cells; host or cells: E. coli Nissle 1917 (EcN), plasmid pAGR157
Briefly: cell-based. The assay is classed as cell-based, E. coli. To be noted: ligand alone, listed as Tyr. How it is done:
as §2, §3, §1

The test system of assay [3] is G494S TynA with A81T FeaR. The assay is classed as cell-based, E. coli MG1655. The note with it: G494S*; 24 h; FIG. 4C. How it is done: as §1
In the next assay the test system is PtynA. Briefly: Ligand specificity of 20 FeaR variants at the 81st position with wild-type TynA, fluorescence from PtynA. The assay is classed as cell-based, E. coli. The note with it: 0.25 mM DA, PEA, Tyra, Trypta, 24 h.
Text: FIG. 5A-FIG. 5D. Engineering FeaR to identify improved phenylethylamine-specific sensors (A) Computationally predicted ligand-binding region of FeaR. Key residues are shown with (magenta) and without (green) phenylethylamine-aldehyde (PEA-aldehyde; cyan) complexed. The structure was predicted using the Robetta web server. Ligand docking was modeled using the Rosetta Ligand Docking Server hosted by ROSIE. The image was generated using PyMOL. […] PtynA was regulated by wild-type TynA and 20 different FeaR variants with the specified amino acid in the 81st position. Residues for each group are listed from left to right in order of increasing size. Non-zero values and error bars are the average and standard deviation of biological triplicate, respectively. Variants with significant expression in response to PEA were determined by unpaired t tests (p<0.05). (C) Transfer curve of PtynA after 24 h of induction with DA, PEA, Tyra, and Trypta. PtynA was regulated by wild-type TynA and the A81L FeaR mutant. Points represent experimental data while the line represents the fitted curve (see e.g., TABLE 2). […] Values and error bars are the average and standard deviation of biological triplicate, respectively. (D) Reorganization of […] with respect to the size and hydropathy index of the 81st residue (see e.g., TABLE 3). The blue area represents characteristic values that permit binding of Tyra. See also FIG. 20-FIG. 25.
Noting the PEA selectivity given by the A81T mutation and the smallest size of the PEA-aldehyde (no OH group), followed by that of Tyra—(1 OH), DA—(2 OHs), and Trypta—(additional 5-membered ring) aldehyde (see e.g., FIG. 3A), it was hypothesized that small residues, including alanine as in wild-type FeaR, would cause ligand promiscuity, with ligand size-dependent response as shown in FIG. 3D. Slightly larger residues such as threonine would have improved selectivity toward the smallest PEA-aldehyde, but much larger or charged residues may fully eliminate ligand binding. It was also hypothesized that the hydropathy index of the 81st residue may also play a role in the sensor's performance due to differences in ligand polarities caused by the different number of hydroxyl groups. […] To test this prediction, A81 was mutated and each mutant was paired with the promiscuous wild-type TynA (see e.g., FIG. 5B). Consistent with the predictions, A81L, A81P, A81 I, and A81N were identified as PEA-specific variants, with 580-fold induction for the A81L sensor (see e.g., FIG. 5C). […] As predicted a clear pattern between the identity of residue 81 and ligand selectivity was observed (see e.g., FIG. 5D, TABLE 3).
as §1

Setting [4] is: wild-type TyrR, pAGR010, FIG. 1C, 8 h.
Where [5] appears, read: pAGR473, FIG. 2G, 8 h, repressible.

T2 sequence (P07604 whole entry R10F): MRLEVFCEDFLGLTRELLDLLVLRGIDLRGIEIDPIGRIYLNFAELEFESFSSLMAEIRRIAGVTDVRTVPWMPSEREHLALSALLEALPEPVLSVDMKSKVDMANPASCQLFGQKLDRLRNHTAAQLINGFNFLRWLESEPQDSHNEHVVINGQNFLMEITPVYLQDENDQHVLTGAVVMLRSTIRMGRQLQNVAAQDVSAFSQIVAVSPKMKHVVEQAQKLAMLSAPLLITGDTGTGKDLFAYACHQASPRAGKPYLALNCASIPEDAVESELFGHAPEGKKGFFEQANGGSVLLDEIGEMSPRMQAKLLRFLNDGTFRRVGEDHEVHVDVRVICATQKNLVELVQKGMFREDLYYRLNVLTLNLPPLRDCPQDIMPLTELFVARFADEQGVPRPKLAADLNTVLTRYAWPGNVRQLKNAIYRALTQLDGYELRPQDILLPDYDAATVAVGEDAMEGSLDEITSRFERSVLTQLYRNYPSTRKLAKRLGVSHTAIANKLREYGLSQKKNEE
T1 sequence (P07604 whole entry): as the sequence (P07604 whole entry R10F) above, with F10R counted along it
T3 sequence (P07604 whole entry D103S/E274Q): as the sequence (P07604 whole entry R10F) above, with F10R, D103S, E274Q counted along it
T4 sequence (P07604 whole entry T14V/E274Q): as the sequence (P07604 whole entry R10F) above, with F10R, T14V, E274Q counted along it

Turning to `O=C(O)Cc1ccc(O)c(O)c1` [DOPAC, 3,4-dihydroxyphenylacetic acid], in assay [1], the “response of the sensors” value is “No sensors significantly responded”.

Consider `O=C(O)Cc1ccc(O)cc1` [HPAA, 4-hydroxyphenylacetic acid], for which the “response of the sensors” value in assay [1] is “No sensors significantly responded”.

For the molecule `O=C(O)Cc1c[nH]c2ccccc12` [IAA, indole-3-acetic acid], the “response of the sensors” value in assay [1] is on record as “No sensors significantly responded”.

Take `O=C(O)Cc1ccccc1` [PAA, phenylacetic acid]: the “response of the sensors” value in assay [1] is “No sensors significantly responded”.

For `N[C@@H](Cc1ccc(O)cc1)C(=O)O` [Tyrosine, tyrosine], the response entry in assay [2] and in assay [3] was “lack of response” throughout. For the same molecule, the “fold repression of PtyrP” value at wild-type TyrR (overexpression of wild-type TyrR) is 59 fold; at R10F TyrR (independent of the presence of Phe, listed as Tyr) it was ~12 fold and 15 fold. The results for the Fmax on wild-type TyrR (setting [4]) and on R10F TyrR (setting [5]) were 2470 and 3210, respectively. The Fmin was found to be 38.1 at wild-type TyrR (setting [4]) and 279 at R10F TyrR (setting [5]). Moreover, the “n (Hill coefficient)” value was found to be 1.9 on wild-type TyrR (setting [4]) and 2.3 at R10F TyrR (setting [5]). The EC50 is 26 µM at wild-type TyrR (wild-type TyrR, pAGR010, FIG. 1C, 8 h, read-out: KA (half maximal constant)); 50 µM and 47 µM at R10F TyrR (KA (half maximal constant), pAGR473, FIG. 2G, 8 h, repressible). Besides, the “response of PtyrP” value at E274Q+D103S TyrR and at E274Q+T14V TyrR was “lack of response; also recorded: no apparent response” each time.

B1: Leucine (L): FeaR variant with leucine in the 81st position, paired with wild-type TynA (protein, UniProt Q47129 1-301, looked up, variant A81L)
Transcriptional activator FeaR: MNPAVDNEFQQWLSQINQVCGNFTGRLLTERYTGVLDTHFAKGLKLSTVTTSGVNLSRTWQEVKGSDDAWFYTVFQLSGQLIMEQDERQVQIGAGDITLLDASRPCSLYWQESSKQISLLLPRTLLEQYFPHQKPICAERLDADLPMVQLSHRLLQESMNNPALSETESEAALQAMVCLLRPVLHQRESVQPRRERQFQKVVTLIDDNIREEILRPEWIAGETGMSVRSLYRMFADKGLVVAQYIRNRRLDFCADAIRHAADDEKLAGIGFHWGFSDQSHFSTVFKQRFGMTPGEYRRKFR
With B1, in the assay with PtynA, the Phenotype entry is recorded as “PEA specific” and the Selectivity result is given as “PEA only”.

B2: Glutamine (Q): FeaR variant with glutamine in the 81st position, paired with wild-type TynA (protein, UniProt Q47129 1-301, looked up, variant A81Q)
Transcriptional activator FeaR: MNPAVDNEFQQWLSQINQVCGNFTGRLLTERYTGVLDTHFAKGLKLSTVTTSGVNLSRTWQEVKGSDDAWFYTVFQLSGQQIMEQDERQVQIGAGDITLLDASRPCSLYWQESSKQISLLLPRTLLEQYFPHQKPICAERLDADLPMVQLSHRLLQESMNNPALSETESEAALQAMVCLLRPVLHQRESVQPRRERQFQKVVTLIDDNIREEILRPEWIAGETGMSVRSLYRMFADKGLVVAQYIRNRRLDFCADAIRHAADDEKLAGIGFHWGFSDQSHFSTVFKQRFGMTPGEYRRKFR
As to B2, in the assay on PtynA, the Phenotype result is “No activity” and the Selectivity entry was “No activity”.

B3: Phenylalanine (F): FeaR variant with phenylalanine in the 81st position, paired with wild-type TynA (protein, UniProt Q47129 1-301, looked up, variant A81F)
Transcriptional activator FeaR: MNPAVDNEFQQWLSQINQVCGNFTGRLLTERYTGVLDTHFAKGLKLSTVTTSGVNLSRTWQEVKGSDDAWFYTVFQLSGQFIMEQDERQVQIGAGDITLLDASRPCSLYWQESSKQISLLLPRTLLEQYFPHQKPICAERLDADLPMVQLSHRLLQESMNNPALSETESEAALQAMVCLLRPVLHQRESVQPRRERQFQKVVTLIDDNIREEILRPEWIAGETGMSVRSLYRMFADKGLVVAQYIRNRRLDFCADAIRHAADDEKLAGIGFHWGFSDQSHFSTVFKQRFGMTPGEYRRKFR
Consider B3, for which, in the assay with PtynA, the Phenotype entry was “No activity” and the Selectivity result is recorded as “No activity”.
